Experimental data reported in PMC7999182, “Interaction of Remdesivir with Clinically Relevant Hepatic Drug Uptake Transporters” (Pharmaceutics, 2021).
Numbering of substitutions follows the chain as printed.

Legend:
[1] = target: T1, OATP1B1 (Homo sapiens, UniProt Q9Y6L6); assay: Remdesivir uptake into HEK cells stably expressing OATP1B1 (*1a) vs vector control; type: in vitro ADME; conditions: 5 µM remdesivir, 10 min
T1 construct: expressed in transfected cells
T1 sequence (Q9Y6L6 1-691): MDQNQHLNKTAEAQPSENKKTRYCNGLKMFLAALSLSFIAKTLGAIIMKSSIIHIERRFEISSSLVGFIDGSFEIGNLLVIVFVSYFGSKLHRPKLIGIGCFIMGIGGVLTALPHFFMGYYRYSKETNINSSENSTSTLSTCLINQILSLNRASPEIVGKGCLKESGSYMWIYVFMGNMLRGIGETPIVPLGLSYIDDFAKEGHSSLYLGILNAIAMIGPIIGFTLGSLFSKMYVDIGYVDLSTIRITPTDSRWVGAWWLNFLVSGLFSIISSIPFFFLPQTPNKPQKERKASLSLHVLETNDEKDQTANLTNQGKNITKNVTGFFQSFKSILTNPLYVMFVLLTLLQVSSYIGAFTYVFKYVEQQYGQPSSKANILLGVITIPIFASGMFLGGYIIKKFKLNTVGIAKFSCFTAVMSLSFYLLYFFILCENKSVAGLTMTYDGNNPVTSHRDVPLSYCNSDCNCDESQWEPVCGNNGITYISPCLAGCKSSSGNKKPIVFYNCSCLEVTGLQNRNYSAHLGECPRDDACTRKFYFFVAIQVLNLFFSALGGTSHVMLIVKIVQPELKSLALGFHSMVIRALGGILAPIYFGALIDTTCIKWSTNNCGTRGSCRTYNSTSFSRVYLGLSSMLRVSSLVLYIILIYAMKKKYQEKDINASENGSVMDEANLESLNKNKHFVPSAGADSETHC
From the text: (§1) Generation, cultivation and characterization of human embryonic kidney (HEK) cells stably expressing OATP1B1 refseq (=OATP1B1*1a), OATP1B1*1b, OATP1B1*5 and OATP1B1*15 [18], OATP1B3 [19], OATP2B1 [13] and OCT1 [20] have been described previously. OATP1B1 cells were cultivated in minimal essential medium (Life Technologies, Paisley, UK) and OATP1B3, OATP2B1 and OCT1 cells were cultivated in Dulbecco’s modified Eagle medium (Sigma, Darmstadt, Germany). Cultivation media were supplemented with 10% fetal calf serum, 100 U/mL penicillin and 100 µg/mL streptomycin. Cells were grown at 37 °C and 5% CO2. Functionality of the cells was confirmed by measuring uptake of prototypic substrates (see Section 2.3 and supplementary material).
Uptake assays were conducted at 37 °C according to previously described methods. For this, cells were seeded in 24-well plates (320,000 cells/well) and cultured for 2 days. Cells were then incubated for a further 24 h in culture medium with 5 mM butyrate (OATP1B3, OATP2B1, OCT1) or 10 mM butyrate (OATP1B1) to increase protein levels of recombinant transporters. Before the uptake experiments, cells were washed with the respective pre-warmed (37 °C) uptake buffer. The compositions of the uptake buffers were as follows: for OATP1B1, OATP1B3, OATP2B1: 142 mM NaCl, 12.5 mM hydroxyethylpiperazine ethanesulfonic acid, 5 mM KCl, 1 mM KH2PO4, 1.5 mM CaCl2, 1.2 mM MgSO4, 5 mM glucose, pH 7.3; for OCT1: 145 mM NaCl, 5 mM hydroxyethylpiperazine ethanesulfonic acid, 3 mM KCl, 1 mM CaCl2, 0.5 mM MgCl2, 5 mM glucose, pH 7.4. Uptake was initiated by replacing this solution with uptake buffer containing different concentrations of remdesivir as indicated. […]
(§2) Remdesivir was determined by UHPLC-MS-MS analysis on an Agilent 1290 infinity UHPLC system coupled to an Agilent 6495B triple quadrupole mass spectrometer (Agilent, Waldbronn, Germany) similar to a recently published method. […]

[2] = target: T2, OATP1B1*5 (Homo sapiens, UniProt Q9Y6L6, V174A); assay: Remdesivir uptake into HEK cells stably expressing OATP1B1*5 vs vector control; type: in vitro ADME; conditions: 0.5 µM remdesivir, 10 min
T2 construct: expressed in transfected cells
T2 sequence (Q9Y6L6 1-691 V174A): T1 sequence (Q9Y6L6 1-691) with V174A
From the text: as §1
Uptake assays were conducted at 37 °C according to previously described methods. For this, cells were seeded in 24-well plates (320,000 cells/well) and cultured for 2 days. Cells were then incubated for a further 24 h in culture medium with 5 mM butyrate (OATP1B3, OATP2B1, OCT1) or 10 mM butyrate (OATP1B1) to increase protein levels of recombinant transporters. […]
as §2

CCC(CC)COC(=O)[C@H](C)N[P@](=O)(OC[C@H]1O[C@@](C#N)(c2ccc3c(N)ncnn23)[C@H](O)[C@@H]1O)Oc1ccccc1 [Remdesivir]
Significance of uptake vs control cells [1]: Statistically significant uptake
Remdesivir uptake ratio ([1]; transporter-expressing vs control HEK cells): 1.3
Accumulation vs vector-transfected control cells ([1]; OATP1B1*1a cells): moderately higher
Uptake vs vector-transfected control cells [2]: significantly lower uptake
